molecular target: T1, Beta-galactosidase (Bos taurus, UniProt Q58D55); experiment: Inhibitory activity against Beta-galactosidase in bovine liver was determined;NI means no inhibition
T1 sequence (Q58D55 whole entry): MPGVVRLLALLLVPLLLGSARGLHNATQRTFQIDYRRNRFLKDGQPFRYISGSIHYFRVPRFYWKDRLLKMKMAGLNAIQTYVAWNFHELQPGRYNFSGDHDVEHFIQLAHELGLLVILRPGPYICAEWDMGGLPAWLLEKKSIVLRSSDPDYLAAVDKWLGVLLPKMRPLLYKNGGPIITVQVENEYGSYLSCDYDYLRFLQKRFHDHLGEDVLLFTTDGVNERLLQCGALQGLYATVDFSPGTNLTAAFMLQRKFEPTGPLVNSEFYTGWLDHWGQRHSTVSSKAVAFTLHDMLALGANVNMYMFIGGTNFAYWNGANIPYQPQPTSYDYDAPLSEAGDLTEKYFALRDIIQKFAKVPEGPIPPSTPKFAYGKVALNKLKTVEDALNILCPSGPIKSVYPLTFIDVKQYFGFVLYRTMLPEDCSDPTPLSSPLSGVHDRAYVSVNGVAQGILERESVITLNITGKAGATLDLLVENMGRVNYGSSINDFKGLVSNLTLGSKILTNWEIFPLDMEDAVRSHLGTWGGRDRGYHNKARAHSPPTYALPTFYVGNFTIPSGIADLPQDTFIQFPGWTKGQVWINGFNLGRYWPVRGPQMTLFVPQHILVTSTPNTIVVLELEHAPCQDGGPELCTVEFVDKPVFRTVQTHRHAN

| SMILES | IC50 |
| --- | --- |
| CC1CC2N=C(Nc3ccccc3)O[C@@H]2[C@@H](O)[C@@H]1O (some centres undefined) | Not Active |
| C[C@@H]1C[C@@H](N)C(O)C(O)[C@@H]1O (single isomer, unassigned) | Not Active |
| C[C@@H]1NC[C@@H](O)[C@H](O)[C@@H]1O [DEOXYFUCONOJIRIMYCIN] | Not Active |
| CCCCNC1=NC2CC(C)[C@@H](O)[C@H](O)[C@H]2O1 (some centres undefined) | Not Active |
| CC1CC2N=C(NCc3ccccc3)O[C@@H]2[C@@H](O)[C@@H]1O (some centres undefined) | Not Active |
| C[C@@H]1C[C@H](N)C(O)C(O)[C@@H]1O (single isomer, unassigned) | Not Active |
| CCCCNC1CC(C)[C@@H](O)[C@H](O)[C@H]1O (some centres undefined) | Not Active |
| CCNC1CC(C)[C@@H](O)[C@H](O)[C@H]1O (some centres undefined) | Not Active |

molecular target: T1, Beta-galactosidase; experiment: Inhibitory activity against Beta-galactosidase in bovine liver was determined; format: tissue-based

| SMILES | IC50 |
| --- | --- |
| CCCCCCCCNC1CC(C)[C@@H](O)[C@H](O)[C@H]1O (some centres undefined) | 37 µM |

From ChEMBL document CHEMBL1135384, “Convenient synthesis and evaluation of enzyme inhibitory activity of several N-alkyl-, N-phenylalkyl, and cyclic isourea derivatives of 5a-carba-alpha-DL-fucopyranosylamine” (Bioorg Med Chem Lett, 2002)
